Source: patent US20090209585A1, “CYCLOALKENE DERIVATIVES, PROCESS FOR PRODUCTION OF THE DERIVATIVES, AND USE OF THE SAME” (priority 2006, published 2009)
In brackets after ≈: the same amount, converted by molar mass. Counter-ions that a name gives are not always drawn.

Columns and labels:
physchem = settings: saline, saline or isotonic
[1] = Solubility according to Japanese Pharmacopoeia general notices, analyzed by HPLC; format: physicochemical; settings: thermodynamic from solid, treated according to Japanese Pharmacopoeia
Protocol: The compounds of Examples 9, 12 and 15 were measured and placed in a glass container by 1 mg each, saline was added in small portions, and the mixture was stirred. The solubility was visually observed. In addition, as a conventional compound having a nitric oxide (NO) production inhibitory effect and an inflammatory cytokine production inhibitory effect, ethyl 6-[N-(2-chloro-4-fluorophenyl)sulfamoyl]cyclohex-1-ene-1-carboxylate (indicated as conventional compound in Table 1) was treated according to the Japanese Pharmacopoeia, general notices, and analyzed by HPLC to determined the solubility.

[2] = tested on: Female BALB/c mice inoculated with LPS; test: Evaluation of efficacy in mouse endotoxin shock model; format: in vivo; settings: 10 mg/kg intravenously in saline, 1 hr before LPS 5 mg/kg intraperitoneally; survival at 5 days from LPS inoculation; 7 mice per group
Protocol: Female BALB/c mice (6-week-old) were purchased and, after preliminary rearing for 1 week, divided into groups (7 per group). The compound of Example 3 was dissolved in saline immediately before administration, and intravenously administered at 10 mg/kg. For the control group, a solvent was administered in the same manner. One hour later, LPS (5 mg/kg) was intraperitoneally inoculated, and the survival of the mice was observed. The efficacy was evaluated based on the survival rate at 5 days from LPS inoculation.

SMILES	solubility (physchem) [µg/mL]	other results
CCOC(=O)C1=CCCCC1S(=O)(=O)N(Cc1cc(C)c(OC(=O)[C@@H]2CCCN2)c(C)c1)c1ccc(F)cc1Cl (stereo partly drawn) [Example 23, 4-[((2-chloro-4-fluorophenyl){[2-(ethoxycarbonyl)cyclohex-2-en-1-yl]sulfonyl}amino)methyl]-2,6-dimethylphenyl L-prolinate]	≥ 1000	–
CCOC(=O)C1=CCCCC1S(=O)(=O)Nc1ccc(F)cc1Cl (stereo not shown) [Conventional compound, ethyl 6-[N-(2-chloro-4-fluorophenyl)sulfamoyl]cyclohex-1-ene-1-carboxylate]	–	solubility [1]: 10 µg/mL (≈ 27.6 µM)
CCOC(=O)C1=CCCCC1S(=O)(=O)N(Cc1cc(C)c(OC(=O)CNC)c(C)c1)c1ccc(F)cc1Cl (stereo not shown) [Example 21, ethyl 6-[((2-chloro-4-fluorophenyl){3,5-dimethyl-4-[(N-methylglycyl)oxy]benzyl}amino)sulfonyl]cyclohex-1-ene-1-carboxylate hydrochloride]	≥ 1000	–
CCOC(=O)C1=CCCCC1S(=O)(=O)N(COC(=O)OCCCC(=O)O)c1ccc(F)cc1Cl (stereo not shown) [Example 3, sodium 4-({[((2-chloro-4-fluorophenyl){[2-(ethoxycarbonyl)cyclohex-2-en-1-yl]sulfonyl}amino)methoxy]carbonyl}oxy)butanoate]	–	number of survived mice (N = 7) [2]: 6
